In brackets after ≈: the same amount, converted by molar mass. Read-outs that look alike come from different tables or passages of the source.
Columns and labels:
[1] = WST-1 cellular toxicity assay, HG23 replicon-bearing cells; assay type: cell-based; details: human, HG23 Norwalk virus replicon-bearing cells, WST-1 viability
RNA viruses = test: Antiviral activity across the panel of RNA viruses tested; assay type: cell-based; details: 5 µM
Excerpt: (§1) Cells were freeze-thawed twice.

[2] = mouse
[3] = WST-1 cellular toxicity assay, bone marrow-derived macrophages; details: Swiss Webster, mouse
[4] = Aqueous solubility as per Lipinski et al.; details: for solubility: kinetic from dmso stock
La Crosse virus (LCV) = test: La Crosse virus infection of Be2-c cells, plaque assay; assay type: cell-based; details: 5 µM, 30 minutes pre-treatment, MOI 5, 12 hours
Excerpt: as §1

[5] = test system: Encephalomyocarditis virus (EMCV); test: Encephalomyocarditis virus infection of Vero cells, plaque assay; assay type: cell-based; details: 5 µM, 30 minutes pre-treatment, MOI 5, 12 hours
Excerpt: as §1

Sindbis virus = Sindbis virus infection of Vero cells, plaque assay; assay type: cell-based; details: 5 µM, 30 minutes pre-treatment, MOI 5, 12 hours
Excerpt: as §1

Tulane virus = Tulane virus infection of LLC-MK2 cells, plaque assay; assay type: cell-based; details: 5 µM, 30 minutes pre-treatment, MOI 5, 24 hours
Excerpt: as §1

MNV-1 [6] = details: 5 µM; for decrease in MNV-1 titers compared to DMSO: 30 minute pre-treatment, RAW 264.7, 8 hours; for viral titer decrease compared to DMSO: administered 1 hour post infection, RAW 264.7
Norwalk virus = test: HuNoV replicon assay in HG23 cells, Norwalk virus genomes by qRT-PCR; details: for reduction of detectable Norwalk virus genomes compared to DMSO: 5 µM, 24 hours, HG23 cells; for EC50: Norwalk virus, HG23, 24 h, read-out: EC50 HG23
[7] = test system: Vesicular Stomatitis Virus (VSV); assay type: cell-based
MNV-1 [8] = details: previously determined by the authors; cited from earlier work
in vitro [9] = details: mouse
in vitro [10] = details: Swiss Webster, mouse
physchem = details: kinetic from dmso stock

Compound	CC50 at 24 h [1]	antiviral activity against any of the viruses tested (RNA viruses)	CC50 [2]	CC50 [3]	solubility [4]	effect on La Crosse virus infectious titers (La Crosse virus (LCV))	effect on EMCV infectious titers [5]	effect on Sindbis virus infectious titers (Sindbis virus)	effect on Tulane virus infectious titers (Tulane virus)	expected aqueous solubility (not determined, limited availability) ([4]; relative to WP1130)	decrease in MNV-1 titers compared to DMSO (MNV-1 [6])	viral titer decrease compared to DMSO (MNV-1 [6])	reduction of detectable Norwalk virus genomes compared to DMSO (Norwalk virus)	EC50 (Norwalk virus)	inhibition of VSV infection [7]	EC50 (MNV-1 [8])	CC50 (in vitro [9])	CC50 (in vitro [10])	solubility (physchem)
CCC[C@H](NC(=O)/C=C/c1cccc(Br)n1)c1ccccc1 [Compound 1]	7.2 µM	no antiviral activity	24.7 µM	10.4 µM	–	–	–	–	–	–	–	–	–	–	–	–	–	–	–
CCC[C@H](NC(=O)C(C#N)Cc1cccc(Br)n1)c1ccccc1 (stereo partly drawn) [Compound 2]	8.71 µM	no antiviral activity	24.9 µM	8.53 µM	–	–	–	–	–	–	–	–	–	–	–	–	–	–	–
CCCC(NC(=O)/C(C#N)=C/c1cccc(Br)n1)c1ccc(OCCN(C)C)cc1 (stereo not drawn) [Compound 3]	7.82 µM	no effect	9.43 µM	6.12 µM	19 µM (≈ 8.96 µg/mL)	–	–	–	–	–	–	–	–	–	–	–	–	–	–
CCC(NC(=O)/C(C#N)=C/c1cccc(Br)n1)c1ccc(O)cc1 (stereo not drawn) [Compound 4]	9.26 µM	–	11 µM	15.2 µM	–	only effective against Tulane virus	only effective against Tulane virus	only effective against Tulane virus	effective	more soluble than WP1130 but less soluble than compound 7	1.95 log	1.73 log	approximately 30%	6.52 µM	–	–	–	–	–
CCCC(NC(=O)/C(C#N)=C/c1cccnc1F)c1ccc(OCCN2CCOCC2)cc1 (stereo not drawn) [Compound 5]	7.61 µM	–	15.4 µM	11.3 µM	14 µM (≈ 6.34 µg/mL)	only effective against Tulane virus	only effective against Tulane virus	only effective against Tulane virus	effective	–	2.52 log	2.67 log	about 64%	4.28 µM	–	–	–	–	–
CCCC(NC(=O)/C(C#N)=C/c1ccccn1)c1ccc(OCCN2CCOCC2)cc1 (stereo not drawn) [Compound 6]	10.4 µM	–	7.46 µM	11.1 µM	160 µM (≈ 69.5 µg/mL)	significantly reduced infectious titers	significantly reduced infectious titers	significantly reduced infectious titers	significantly reduced infectious titers	–	2.55 log	2.50 log	about 64%	4.17 µM	–	–	–	–	–
CCCC(NC(=O)/C(C#N)=C/c1cccc(F)n1)c1ccc(OCCN2CCOCC2)cc1 (stereo not drawn) [Compound 7]	6.12 µM	–	13.7 µM	7.11 µM	14 µM (≈ 6.34 µg/mL)	significantly decreased infection	not of EMCV, although a trend towards antiviral activity was present	significantly decreased infection	significantly decreased infection	–	2.60 log	1.51 log	~80%	3.37 µM	–	–	–	–	–
CCC[C@H](NC(=O)/C(C#N)=C/c1cccc(Br)n1)c1ccccc1 [WP1130, reference compound]	6.2 µM	–	–	–	–	significantly reduced infectious titers	significantly reduced infectious titers	significantly reduced infectious titers	significantly reduced infectious titers	–	2.0 log	–	–	–	not inhibited	5.06 µM	9.95 µM	6.46 µM	~3.2 µM (≈ 1.23 µg/mL)
